# What was measured:
# Experiment in all cases: relative viability (nuclei count vs DMSO), 5 days (fraction); higher = more cells survive
# [1] = compound: C1CC2=C(C1)C=C(C=C2)OC3=NC(=C4C(=N3)N(C=N4)CC5=CC=C(C=C5)C6=CC=CC=C6)N[C@@H](CC7=CC=CC=C7)CO [QS11] + CC(C)C[C@H](NC(=O)[C@H](Cc1ccccc1)NC(=O)c1cnccn1)B(O)O [Bortezomib] (partner 0.002 µM)
# Summary of the method: (§1)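 After 5 days of treatment, lung cancer cells in 1536-well plates were fixed and stained in a single step (final 0.05% Triton X-100, 1% formaldehyde, 1 ug/ml Hoechst) and their nuclei counted on 4× images. Treatment had been applied by pin tool the day after seeding as one drug alone or as a fixed anchor-drug dose with five library-drug doses (not always all listed) in √10 steps. Relative viability is the nuclei count of treated wells divided by that of vehicle wells, and values are medians of duplicate plates.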
# [2] = compound: C1CC2=C(C1)C=C(C=C2)OC3=NC(=C4C(=N3)N(C=N4)CC5=CC=C(C=C5)C6=CC=CC=C6)N[C@@H](CC7=CC=CC=C7)CO [QS11] + C[C@]1(O)C[C@@H](c2nc(-c3ccc4ccc(-c5ccccc5)nc4c3)c3c(N)nccn32)C1 [Linsitinib] (partner 1 µM)
# Summary of the method: as §1
# [3] = compound: CC1=C(C=C(C=C1)NC(=O)C2=CC(=CC=C2)C(C)(C)C#N)NC3=CC4=C(C=C3)N=CN(C4=O)C [AZ628] + CC(=O)c1c(C)c2cnc(Nc3ccc(N4CCNCC4)cn3)nc2n(C2CCCC2)c1=O [Palbociclib] (partner 0.5 µM)
# Summary of the method: as §1
# [4] = compound: C[As](C)SC[C@H](NC(=O)CC[C@H](N)C(=O)O)C(=O)NCC(=O)O [Darinaparsin] + Nc1nc2[nH]cc(CCc3ccc(C(=O)N[C@@H](CCC(=O)O)C(=O)O)cc3)c2c(=O)[nH]1 [Pemetrexed] (partner 0.2 µM)
# Summary of the method: as §1
Cell Line,relative viability ([1]; first compound 0.08 µM),relative viability ([1]; first compound 0.253 µM),relative viability ([1]; first compound 0.8 µM),relative viability ([1]; first compound 2.53 µM),relative viability ([1]; first compound 8 µM),relative viability ([2]; first compound 0.08 µM),relative viability ([2]; first compound 0.253 µM),relative viability ([2]; first compound 0.8 µM),relative viability ([2]; first compound 2.53 µM),relative viability ([2]; first compound 8 µM),relative viability ([3]; first compound 0.08 µM),relative viability ([3]; first compound 0.253 µM),relative viability ([3]; first compound 0.8 µM),relative viability ([3]; first compound 2.53 µM),relative viability ([3]; first compound 8 µM),relative viability ([4]; first compound 0.08 µM),relative viability ([4]; first compound 0.8 µM),relative viability ([4]; first compound 2.53 µM),relative viability ([4]; first compound 8 µM)
LU99A,0.878,1.37,1.17,1.11,0.706,0.529,0.561,0.555,0.465,0.38,0.366,0.368,0.381,0.442,0.369,0.19,0.161,0.384,0.194
LXF-289,1,0.996,0.791,0.819,0.614,0.977,1.01,0.681,0.896,0.72,0.617,0.658,0.592,0.621,0.44,0.888,0.962,0.894,0.965
NCI-H23,1.03,0.926,0.978,0.722,1,0.624,0.528,0.561,0.477,0.404,0.476,0.551,0.347,0.23,0.265,0.933,0.616,0.643,0.74
NCI-H322M,1.31,1.04,1.27,1.4,1.63,0.93,0.914,0.931,1.02,0.936,0.513,0.519,0.466,0.505,0.449,0.695,0.582,0.589,0.618
NCI-H441,0.437,0.536,0.475,0.444,0.299,0.519,0.544,0.613,0.561,0.601,0.184,0.18,0.147,0.145,0.151,0.264,0.239,0.279,0.246
NCI-H460,1.04,1.13,0.819,0.973,0.345,0.874,0.976,0.725,0.479,0.073,0.148,0.168,0.147,0.17,0.123,0.0581,0.0587,0.0655,0.0643
NCI-H520,–,0.593,0.541,0.479,0.471,–,0.986,1.09,1.18,1.11,0.21,0.224,0.197,0.254,0.199,0.639,0.613,0.68,0.76
NCI-H647,0.938,0.987,0.976,1.08,0.894,1.12,1.21,1.17,1.21,1.23,0.493,0.43,0.322,0.357,0.289,0.189,0.156,0.166,0.146
NCI-H650,0.681,0.625,0.815,0.819,0.888,0.81,0.943,0.859,0.87,0.929,0.366,0.425,0.475,0.545,0.374,0.947,0.835,0.959,1.02
NCI-H661,0.718,0.685,0.685,0.912,0.919,0.522,0.681,0.556,0.408,0.549,0.418,0.378,0.368,0.366,0.386,0.915,0.922,0.921,1.02
NCI-H838,0.942,0.641,0.684,0.851,0.923,1.07,0.879,0.7,0.837,0.851,0.214,0.205,0.203,0.224,0.192,0.272,0.223,0.245,0.247
NCI-H1355,1.2,1.19,0.862,1.21,1.13,0.762,0.791,0.671,0.84,0.712,0.411,0.397,0.388,0.373,0.294,1.16,1.08,0.906,1.07
NCI-H1437,0.569,0.325,0.459,0.402,0.336,1.12,1.26,0.698,0.771,0.86,0.317,0.297,0.274,0.425,0.379,0.34,0.371,0.301,0.329
NCI-H1651,0.954,1.06,0.804,0.959,0.994,1.12,0.987,0.813,0.939,0.581,0.544,0.536,0.529,0.562,0.625,0.621,0.594,0.569,0.748
NCI-H1666,0.83,0.722,0.74,0.719,0.564,0.853,0.644,0.644,0.53,0.464,0.678,0.666,0.683,0.71,0.685,0.91,0.854,0.984,0.955
NCI-H1734,0.932,0.913,0.848,0.822,0.738,0.897,0.988,0.851,0.825,0.848,0.367,0.301,0.299,0.319,0.225,0.421,0.389,0.442,0.466

# Reference: the supplement of paper PMC10307832
